Reference: ChEMBL document CHEMBL3885861, “Open TG-GATES”

Species: Rattus norvegicus
Experiment: Open TG-GATES - Regimen: Single
Assay type: toxicity, organism-based, Sprague-Dawley
Parameters: regimen Single, gender Male, age 6 weeks
Settings: in vivo, po, 300 mg/kg, route gavage, dose level Middle; for APTT / Bas / Eos / Fbg / Hb / Ht / Lym / MCH / MCHC / MCV / Mono / Neu / PT / Plat / RBC / Ret / WBC: tissue Blood; for KIDNEY_L / KIDNEY_R / KIDNEY_TOTAL: tissue Kidney; for LIVER: tissue Liver; for A/G / ALP / ALT / AST / BUN / CRE / Ca / Cl / DBIL / GLC / IP / K / LDH / Na / PL / RALB / TBIL / TC / TG / TP / gamma-GTP: tissue Plasma

C[C@H]1O[C@H](O[C@H]2[C@H](O)[C@@H](O)[C@@H](O[C@H]3[C@H](O)[C@@H](O)C(O)O[C@@H]3CO)O[C@@H]2CO)[C@H](O)[C@@H](O)[C@@H]1N[C@H]1C=C(CO)[C@@H](O)[C@H](O)[C@H]1O (some centres not stated) [ACARBOSE]
TERMINAL_BW (3 h): 199.8 g | APTT (3 h): 16.9 s | Bas (3 h): 0% | Eos (3 h): 0.8% | Fbg (3 h): 290.6 mg/dL | Hb (3 h): 13.5 g/dL | Ht (3 h): 41.4% | Lym (3 h): 77.8% | MCH (3 h): 21.2 pg | MCHC (3 h): 32.6% | MCV (3 h): 65.1 fL | Mono (3 h): 2.8% | Neu (3 h): 17.8% | PT (3 h): 13.4 s | Plat (3 h): 115.1 x10_4/uL | RBC (3 h): 636 x10_4/ul | Ret (3 h): 8.7% | WBC (3 h): 82.6 x10_2/uL | KIDNEY_L (3 h): 0.9 g | KIDNEY_R (3 h): 0.9 g | KIDNEY_TOTAL (3 h): 1.9 g | LIVER (3 h): 9 g | A/G (3 h): 0.9 | ALP (3 h): 1420.8 IU/L | ALT (3 h): 35.6 IU/L | AST (3 h): 75.4 IU/L | BUN (3 h): 9.8 mg/dL | CRE (3 h): 0.2 mg/dL | Ca (3 h): 10.9 mg/dL | Cl (3 h): 104.6 meq/L | DBIL (3 h): 0.004 mg/dL | GLC (3 h): 172.4 mg/dL | IP (3 h): 10 mg/dL | K (3 h): 4 meq/L | LDH (3 h): 67.8 IU/L | Na (3 h): 141.2 meq/L | PL (3 h): 140 mg/dL | RALB (3 h): 2.5 g/dL | TBIL (3 h): 0.066 mg/dL | TC (3 h): 79.8 mg/dL | TG (3 h): 51.6 mg/dL | TP (3 h): 5.2 g/dL | gamma-GTP (3 h): 1.2 IU/L | TERMINAL_BW (6 h): 198.7 g | APTT (6 h): 17 s | Bas (6 h): 0% | Eos (6 h): 0.8% | Fbg (6 h): 290.6 mg/dL | Hb (6 h): 13.2 g/dL | Ht (6 h): 40.6% | Lym (6 h): 75.8% | MCH (6 h): 20.8 pg | MCHC (6 h): 32.4% | MCV (6 h): 64 fL | Mono (6 h): 3% | Neu (6 h): 19.6% | PT (6 h): 13.5 s | Plat (6 h): 124.8 x10_4/uL | RBC (6 h): 635 x10_4/ul | Ret (6 h): 8.7% | WBC (6 h): 86.3 x10_2/uL | KIDNEY_L (6 h): 0.9 g | KIDNEY_R (6 h): 0.9 g | KIDNEY_TOTAL (6 h): 1.8 g | LIVER (6 h): 8.2 g | A/G (6 h): 0.9 | ALP (6 h): 1441 IU/L | ALT (6 h): 35 IU/L | AST (6 h): 70 IU/L | BUN (6 h): 9.6 mg/dL | CRE (6 h): 0.2 mg/dL | Ca (6 h): 10.8 mg/dL | Cl (6 h): 104 meq/L | DBIL (6 h): 0.004 mg/dL | GLC (6 h): 160.4 mg/dL | IP (6 h): 10.5 mg/dL | K (6 h): 4 meq/L | LDH (6 h): 57 IU/L | Na (6 h): 141.4 meq/L | PL (6 h): 133.6 mg/dL | RALB (6 h): 2.5 g/dL | TBIL (6 h): 0.058 mg/dL | TC (6 h): 71 mg/dL | TG (6 h): 38.6 mg/dL | TP (6 h): 5.2 g/dL | gamma-GTP (6 h): 1 IU/L | TERMINAL_BW (9 h): 195.2 g | APTT (9 h): 17 s | Bas (9 h): 0.4% | Eos (9 h): 0.8% | Fbg (9 h): 292.8 mg/dL | Hb (9 h): 13.5 g/dL | Ht (9 h): 42% | Lym (9 h): 80.4% | MCH (9 h): 20.7 pg | MCHC (9 h): 32% | MCV (9 h): 64.8 fL | Mono (9 h): 2.2% | Neu (9 h): 15.6% | PT (9 h): 13.4 s | Plat (9 h): 119.8 x10_4/uL | RBC (9 h): 650.2 x10_4/ul | Ret (9 h): 8.7% | WBC (9 h): 84.7 x10_2/uL | KIDNEY_L (9 h): 1 g | KIDNEY_R (9 h): 0.9 g | KIDNEY_TOTAL (9 h): 1.9 g | LIVER (9 h): 7.7 g | A/G (9 h): 0.9 | ALP (9 h): 1353.2 IU/L | ALT (9 h): 36.8 IU/L | AST (9 h): 76 IU/L | BUN (9 h): 8.6 mg/dL | CRE (9 h): 0.2 mg/dL | Ca (9 h): 10.3 mg/dL | Cl (9 h): 105.4 meq/L | DBIL (9 h): 0 mg/dL | GLC (9 h): 169.8 mg/dL | IP (9 h): 10.7 mg/dL | K (9 h): 3.8 meq/L | LDH (9 h): 61 IU/L | Na (9 h): 141.4 meq/L | PL (9 h): 131.4 mg/dL | RALB (9 h): 2.4 g/dL | TBIL (9 h): 0.06 mg/dL | TC (9 h): 77 mg/dL | TG (9 h): 36.2 mg/dL | TP (9 h): 5.2 g/dL | gamma-GTP (9 h): 1.2 IU/L | TERMINAL_BW (24 h): 210.8 g | APTT (24 h): 17.1 s | Bas (24 h): 0% | Eos (24 h): 1% | Fbg (24 h): 248.4 mg/dL | Hb (24 h): 13.1 g/dL | Ht (24 h): 40.2% | Lym (24 h): 76% | MCH (24 h): 21.3 pg | MCHC (24 h): 32.6% | MCV (24 h): 65.2 fL | Mono (24 h): 3.4% | Neu (24 h): 18.8% | PT (24 h): 13.3 s | Plat (24 h): 121 x10_4/uL | RBC (24 h): 617.4 x10_4/ul | Ret (24 h): 7.8% | WBC (24 h): 102.2 x10_2/uL | KIDNEY_L (24 h): 0.9 g | KIDNEY_R (24 h): 0.9 g | KIDNEY_TOTAL (24 h): 1.8 g | LIVER (24 h): 9.9 g | A/G (24 h): 0.9 | ALP (24 h): 1736 IU/L | ALT (24 h): 42.2 IU/L | AST (24 h): 71.8 IU/L | BUN (24 h): 13.4 mg/dL | CRE (24 h): 0.2 mg/dL | Ca (24 h): 10.9 mg/dL | Cl (24 h): 104.8 meq/L | DBIL (24 h): 0.012 mg/dL | GLC (24 h): 176.4 mg/dL | IP (24 h): 8 mg/dL | K (24 h): 3.9 meq/L | LDH (24 h): 60.6 IU/L | Na (24 h): 142.6 meq/L | PL (24 h): 134.8 mg/dL | RALB (24 h): 2.6 g/dL | TBIL (24 h): 0.062 mg/dL | TC (24 h): 71.2 mg/dL | TG (24 h): 74 mg/dL | TP (24 h): 5.4 g/dL | gamma-GTP (24 h): 1 IU/L
